Common to all, as to assay type: biochemical
For one experiment, the target named is T1, Erv1 (Saccharomyces cerevisiae, UniProt P27882).
T1 sequence (P27882 1-189): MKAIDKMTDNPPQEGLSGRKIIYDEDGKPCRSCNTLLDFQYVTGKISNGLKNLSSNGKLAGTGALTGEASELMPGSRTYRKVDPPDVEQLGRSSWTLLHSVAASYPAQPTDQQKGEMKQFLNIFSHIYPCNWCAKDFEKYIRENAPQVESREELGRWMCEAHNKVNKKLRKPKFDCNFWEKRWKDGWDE
The experiment in a line: Amplex Red-HRP sulfhydryl oxidase assay with recombinant Erv1.

The next experiment has as its target ALR (Homo sapiens, UniProt P55789). The experiment in a line: Amplex Red-HRP sulfhydryl oxidase assay.
The next experiment concerns the target T2, Erv2 (Saccharomyces cerevisiae, UniProt Q12284).
T2 sequence (Q12284 1-196): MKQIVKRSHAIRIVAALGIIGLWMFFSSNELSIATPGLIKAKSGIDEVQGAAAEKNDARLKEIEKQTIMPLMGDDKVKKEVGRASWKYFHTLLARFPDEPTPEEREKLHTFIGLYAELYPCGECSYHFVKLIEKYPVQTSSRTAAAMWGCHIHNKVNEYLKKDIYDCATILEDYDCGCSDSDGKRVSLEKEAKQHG
The experiment in a line: Amplex Red-HRP sulfhydryl oxidase assay.

What is called IC50 is the concentration at which inhibition is half-maximal.

Chain of ALR (P55789 whole entry): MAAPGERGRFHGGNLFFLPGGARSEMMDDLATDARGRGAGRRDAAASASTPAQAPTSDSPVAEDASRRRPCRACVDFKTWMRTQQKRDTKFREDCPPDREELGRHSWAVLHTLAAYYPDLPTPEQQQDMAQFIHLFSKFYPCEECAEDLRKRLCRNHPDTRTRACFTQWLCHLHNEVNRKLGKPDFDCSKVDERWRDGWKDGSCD

In the case of `Oc1c(Cl)cc(Cl)cc1C=Nc1ccc(Nc2ccccc2)cc1` [MitoBloCK-6], the IC50 at Erv1 was 900 nM; on ALR, 700 nM; at Erv2 it was 1400 nM.
